Among the data in patent publication US10858342B2, “Bicyclic imidazole derivatives useful for the treatment of renal diseases, cardiovascular diseases and fibrotic diseases” (Boehringer Ingelheim International GmbH, priority 2016, dated 2020) are IC50 and Selectivity values, retold here.

pIC50: −log10 of the molar value.

Common to all, as to format: biochemical, cynomolgus monkey
Assay [1] deals with aldosterone synthase (CYP11B2) (Macaca fascicularis, UniProt A0A2K5UPL9). Nature of the assay: Inhibition of aldosterone synthase (cynomolgus adrenal mitochondria, aldosterone by mass spectrometry). The following applies: 2 μM corticosterone substrate, 50 units CYP11B2, 90 min, 37° C.; read-out: Aldosterone Inhibition IC50. The method, then:
(§1) The aldosterone synthase and cortisol synthase inhibition assays employ cynomolgus adrenal gland mitochondria as the source of aldosterone synthase (CYP11B2) and cortisol synthase (CYP11B1). […] One unit of CYP11B2 and CYP11B1 activity in these preparations is defined as the amount of enzyme that generates 1 pmol of product in one hour under the conditions described.
(§2) The compounds of the invention may be evaluated for aldosterone synthase inhibition by the following assay:
(§3) Assays are performed in 96-well format in a final volume of 60 microL/well, containing 100 mM potassium phosphate, pH 7.4, 1% (v/v) DMSO, and additionally, 2 μM of corticosterone and 50 units of CYP11B2 activity. Reactions are started by the addition of NADPH to 1 mM and allowed to proceed for 90 minutes at 37° C. Reactions are terminated by the addition of 60 μL of MeCN containing an internal standard for mass spectrometry. One hundred microliters are then transferred to a glass filter plate and centrifuged at 570×g for 5 minutes and the filtrate is collected. Reaction product aldosterone is quantified by mass spectrometry. To determine the assay blank value (0% activity), NADPH is omitted from some reactions.
(§4) Dose dependent inhibition is quantified by the inclusion of compound at various concentrations. Maximum activity (100%) is defined by reactions containing NADPH, but without compound.

Assay [2] relates to aldosterone synthase (CYP11B2). The assay is described as above. The note with it: selectivity for aldosterone synthase inhibition over cortisol synthase (CYP11B1) inhibition, fold. The method, then: as §1, §2, §3, §4
The target in assay [3] is cortisol synthase (CYP11B1) (Macaca fascicularis, UniProt A0A2K5ULY1). The assay is described as follows: Inhibition of cortisol synthesis (cynomolgus adrenal mitochondria, cortisol by mass spectrometry). The following applies: 11-deoxycortisol substrate, 150 units CYP11B1; read-out: Cortisol Inhibition IC50. Here is the method:
The aldosterone synthase and cortisol synthase inhibition assays employ cynomolgus adrenal gland mitochondria as the source of aldosterone synthase (CYP11B2) and cortisol synthase (CYP11B1). Mitochondria are prepared from frozen cynomolgus monkey adrenal glands according to Method A described in by J. D. McGarry et al. (Biochem. J., 1983, 214, 21-28), with a final resuspension in the AT buffer described in R. Yamaguchi et al. (Cell Death and Differentiation, 2007, 14, 616-624), frozen as aliquots in liquid nitrogen and stored at −80° C. until use. One unit of CYP11B2 and CYP11B1 activity in these preparations is defined as the amount of enzyme that generates 1 pmol of product in one hour under the conditions described.
as §3
Dose dependent inhibition is quantified by the inclusion of compound at various concentrations. Maximum activity (100%) is defined by reactions containing NADPH, but without compound. Activities at each concentration are expressed as a percentage of the maximum activity (y-axis) and plotted against concentration of compound (x-axis) and the concentration corresponding to 50% activity (IC50) determined using the XLFit curve-fitting program using a 4-parameter logistic model.
Assays are performed as for aldosterone synthase except for the use of 150 units of CYP11B1, 11-deoxycortisol as substrate and cortisol measured as product.

aldosterone synthase (CYP11B2) (Macaca fascicularis, UniProt A0A2K5UPL9), sequence (A0A2K5UPL9 1-503): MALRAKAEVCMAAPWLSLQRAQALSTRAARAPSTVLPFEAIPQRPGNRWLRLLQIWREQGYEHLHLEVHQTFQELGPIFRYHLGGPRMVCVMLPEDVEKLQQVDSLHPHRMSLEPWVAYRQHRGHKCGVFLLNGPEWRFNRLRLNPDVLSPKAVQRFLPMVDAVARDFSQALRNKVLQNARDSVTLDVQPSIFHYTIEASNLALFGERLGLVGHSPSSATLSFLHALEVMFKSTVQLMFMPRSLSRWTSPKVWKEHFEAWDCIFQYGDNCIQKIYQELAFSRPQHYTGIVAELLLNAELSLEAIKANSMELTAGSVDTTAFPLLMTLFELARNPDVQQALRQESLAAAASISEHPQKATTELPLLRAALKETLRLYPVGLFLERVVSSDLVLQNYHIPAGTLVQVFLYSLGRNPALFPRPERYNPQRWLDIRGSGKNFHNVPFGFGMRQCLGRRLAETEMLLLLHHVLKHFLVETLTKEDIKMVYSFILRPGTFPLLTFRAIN

Consider `CC1(C)CC(=O)c2c(ncn2-c2cc(Cl)cc(Cl)c2)C1` [C-ABH, 3-(3,5-Dichloro-phenyl)-6,6-dimethyl-3,5,6,7-tetrahydro-benzoimidazol-4-one], for which the pIC50 (as a rule, the IC50 on a negative log10 scale, so that one unit is a factor of ten) in assay [1] is 7.66; in assay [3], 5.28. Also, in assay [2], the Selectivity is 240.

In the case of `CC1(C)CC(=O)c2c(ncn2-c2ccc(F)c(Cl)c2)C1` [C-ABI, 3-(3-Chloro-4-fluoro-phenyl)-6,6-dimethyl-3,5,6,7-tetrahydro-benzoimidazol-4-one], the values for the pIC50 in assay [1] and in assay [3] were 8.32 and 6.04, respectively. For the same compound, in assay [2], the Selectivity is listed as 190.

`CC(C)Oc1ccc(-n2cnc3c2C(=O)CC(C)(C)C3)cc1Cl` [C-ABJ, 3-(3-Chloro-4-isopropoxy-phenyl)-6,6-dimethyl-3,5,6,7-tetrahydro-benzoimidazol-4-one]: the pIC50 was 7.12 in assay [1] and 4.02 in assay [3]. Also, in assay [2], the Selectivity was determined as 1300.

On to `CC1(C)CC(=O)c2c(ncn2-c2cccc(Cl)c2)C1` [C-ABK, 3-(3-Chloro-phenyl)-6,6-dimethyl-3,5,6,7-tetrahydro-benzoimidazol-4-one], for which the pIC50 in assay [1] is 7.72; in assay [3], 5.15. Further, the Selectivity in assay [2] is 370.

Take `CC(=O)c1ccc(-n2cnc3c2C(=O)CC(C)(C)C3)cc1` [C-ABL, 3-(4-Acetyl-phenyl)-6,6-dimethyl-3,5,6,7-tetrahydro-benzoimidazol-4-one]: the pIC50 in assay [1] is 7.23; in assay [3] it was 5.06. This compound displayed a Selectivity in assay [2] of 150.

On to `CC1(C)CC(=O)c2c(ncn2-c2ccc(Cl)c(F)c2)C1` [C-ABM, 3-(4-Chloro-3-fluoro-phenyl)-6,6-dimethyl-3,5,6,7-tetrahydro-benzoimidazol-4-one], for which the pIC50 in assay [1] is 8.33; in assay [3] it was 6.11. Moreover, the Selectivity in assay [2] is given as 160.

`CC1(C)CC(=O)c2c(ncn2-c2ccc(Cl)cc2)C1` [C-ABN, 3-(4-Chloro-phenyl)-6,6-dimethyl-3,5,6,7-tetrahydro-benzoimidazol-4-one]: the pIC50 in assay [1] is 7.82; in assay [3] it was 6.00. For the same compound, the Selectivity in assay [2] came out at 67.

Consider `CN(C)c1ccc(-n2cnc3c2C(=O)CC(C)(C)C3)cc1` [C-ABO, 3-(4-Dimethylamino-phenyl)-6,6-dimethyl-3,5,6,7-tetrahydro-benzoimidazol-4-one], for which the pIC50 was 6.89 in assay [1] and 4.46 in assay [3]. The Selectivity in assay [2] stood at 270.

As to `CC1(C)CC(=O)c2c(ncn2-c2ccc(F)cc2)C1` [C-ABP, 3-(4-Fluoro-phenyl)-6,6-dimethyl-3,5,6,7-tetrahydro-benzoimidazol-4-one], the pIC50 in assay [1] is 7.68; in assay [3], 5.96. Also, the Selectivity in assay [2] came to 52.

Regarding `COc1ccc(-n2cnc3c2C(=O)CC(C)(C)C3)cc1` [C-ABR, 3-(4-Methoxy-phenyl)-6,6-dimethyl-3,5,6,7-tetrahydro-benzoimidazol-4-one], the pIC50 in assay [1] is 6.89; in assay [3], 4.68. Further, the Selectivity in assay [2] is reported as 150.

Regarding `CC1(C)CC(=O)c2c(ncn2-c2ccc(Cl)nc2)C1` [C-ABT, 3-(6-Chloro-pyridin-3-yl)-6,6-dimethyl-3,5,6,7-tetrahydro-benzoimidazol-4-one], the pIC50 is 6.64 in assay [1] and 5.16 in assay [3]. In addition, the Selectivity in assay [2] worked out at 30.

As to `CC1(C)CC(=O)c2c(ncn2-c2ccc3c(c2)OCO3)C1` [C-ABU, 3-Benzo[1,3]dioxol-5-yl-6,6-dimethyl-3,5,6,7-tetrahydro-benzoimidazol-4-one], the figures for the pIC50 in assay [1] and in assay [3] were 7.47 and 5.38, respectively. The same compound had a Selectivity in assay [2] of 120.

Regarding `Cc1cc(-n2cnc3c2C(=O)CC(C)(C)C3)ccc1C#N` [C-ABV, 4-(5,5-Dimethyl-7-oxo-4,5,6,7-tetrahydro-benzoimidazol-1-yl)-2-methyl-benzonitrile], the pIC50 in assay [1] is 8.18; in assay [3], 6.89. Besides, in assay [2], the Selectivity was determined as 20.
